Consider three substances from patent US12723096B2, “Regimens and methods of treating multiple sclerosis using ofatumumab” (Novartis AG, priority 2016, dated 2026).

The subject of data set [1] is relapsing MS patients. The conditions noted are these: Phase 2; cited from earlier work.
Data set [2] concerns patients with RMS. The conditions noted are these: 2 Phase 3 trials; over 2 years; cited from earlier work.
Data set [3] in a line: Phase I/II study of single low-dose SC ofatumumab in rheumatoid arthritis: safety and tolerability. The data set is classed as in vivo, human. The conditions noted are these: RA patients; single doses up to 60 mg, without CS premedication. On the procedure: (§1) Ofatumumab targets a novel epitope on the CD20 molecule distinct from rituximab (RTX), a chimeric anti-CD20 MAb. RTX studies have utilized high intravenous (IV) doses (two 1000 mg doses 14 days apart) leading to very rapid B cell lysis resulting in infusion reactions despite the use of IV corticosteroid (CS) premedication. The first study involving ofatumumab was a phase I/II study to investigate the use of a low dose subcutaneous (SC) formulation of ofatumumab in rheumatoid arthritis (RA), administered without CS, potentially providing more controlled B cell depletion than that seen in the RTX studies. The primary objective was to investigate the safety and tolerability of a single SC dose of ofatumumab in rheumatoid arthritis (RA) patients on background methotrexate (MTX). Secondary objectives included investigating the minimum dose to achieve target peripheral B-cell depletion, the pharmacodynamic dose-response curve and B-cell repletion profile. […] Single doses up to 60 mg were tolerated and may provide a method of achieving B-cell depletion without additional CS premedication. This study established that the duration of peripheral B cell depletion increases with dose of ofatumumab (ofatumumab), an anti-CD20 antibody.

Data set [4] relates to CD19+ B cells. Nature of the data set: Study OMS112831/MIRROR: CD19 B-cell counts. The data set is classed as in vivo, human.
Experimental: (§2) In this study, called MIRROR (MRI study In RRMS: evaluating ofatumumab Regimen), patients received ofatumumab 3 mg, 30 mg, or 60 mg every 12 weeks (q12w), or ofatumumab 60 mg every 4 weeks (q4w). To evaluate whether tolerability to the higher ofatumumab doses (30 mg and 60 mg) could be improved by the administration of an initial, lower, conditioning dose of ofatumumab (theoretically leading to the gradual lysis of B cells and potentially reducing cytokine release reactions), patients in the 30 mg q12w, 60 mg q12w and 60 mg q4w dose groups were randomized (1:1) to receive either placebo or a conditioning dose of ofatumumab 3 mg at week 0.
The conditions of data set [5]: oncology studies; Arzerra US prescribing information 2016; cited from earlier work.
The conditions of data set [6]: in vivo.
Experimental: as §2
Data set [7] deals with peripheral B-cell. Put plainly: Phase I/II study of single low-dose SC ofatumumab in rheumatoid arthritis: peripheral B-cell depletion. The data set is classed as in vivo, human. The note with it: RA patients on stable MTX; single SC doses of 30, 60 or 100 mg. The method, then:
as §1

For data set [8], the system named is patients with RRMS. The note with it: iv 100, 300, 700 mg; each dose level, both treatment periods; cited from earlier work.
The subject of data set [9] is circulating B-cell. The conditions noted are these: iv 100, 300, 700 mg; each dose level; cited from earlier work.
In data set [10] the test system is relapsing-remitting multiple sclerosis (RRMS). Put plainly: Study OMS112831/MIRROR, repeat-dose SC ofatumumab in RRMS: brain MRI lesions and relapses. The data set is classed as in vivo, human. The note with it: for reduction of mean cumulative number of new gadolinium-enhancing lesions vs placebo: p<0.001. The source says:
The primary endpoint was the cumulative number of new gadolinium-enhancing lesions during weeks 0-12 on brain magnetic resonance imaging (MRI). Other endpoints included • (i) the cumulative number of new Gd-enhancing lesions at other time points; • (ii) (ii) the total volume at weeks 12 and 24 of a) new Gd-enhancing lesions, b) new/newly enlarged T2 lesions, and c) T1 hypointense lesions; • (iii) the proportion of patients free from relapses; • (iv) Expanded Disability Status Scale (EDSS) scores; • (v) Multiple Sclerosis Functional Composite (MSFC) and their component scores; • (vi) Modified Fatigue Impact Scale (MFIS); and • (vii) Evaluation of the use of the initial conditioning ofatumumab dose.

Some results are limits rather than exact numbers.

In the case of ocrelizumab, the MRI-measured inflammatory activity entry in data set [1] is reported as “marked reductions”. In addition, the “relapse rates vs interferon beta 1a” value in data set [2] is recorded as “significantly reduced”.

As to ofatumumab, in data set [3], the “tolerability of single SC dose” value is recorded as “tolerated”. Moreover, in data set [4] (3, 30, 60 mg q12w, 60 mg q4w SC), the “depletion of CD19 B-cells” value is given as “dose-dependently”. Besides, the “B-cell repopulation once dosing ceased” value in [4] (all treatments, over 60 weeks of follow up, compared to high-dose i.v. anti-CD20 antibodies) is recorded as “relatively rapid B-cell repopulation”. For the same substance, the “B-cell repletion during the inter-dosing interval” value in data set [4] (monthly dosing (60 mg q4 weeks)) was “no signs of B-cell repletion”. Besides, the “incidence of anti-drug antibodies (ADA) against ofatumumab” value in data set [5] is < 1 % of patients. Besides, in data set [6], the “adverse events versus lower dose regimens of 3 or 30 mg q12 weeks” value was “more adverse events”, the “injection-related reactions (most commonly reported AE)” value was determined as 52%, the “injection-related reactions mild/moderate in severity” value is given as 97 % of the events and the opportunistic infections result is listed as “no cases”. In [6], the “overall safety and tolerability” value is “safe and well tolerated”. Further, the “peripheral B-cell depletion” value in [7] is “profound and sustained peripheral B-cell depletion”. Further, the “reduction in MRI lesion activity versus placebo” value in data set [8] is “up to 96%”. Further, in data set [9], the “circulating B-cell counts” value is “profound reduction”. In data set [10] (3 mg every 12 weeks), the MRI effect result is on record as “clear MRI effect”. The MRI efficacy result in data set [10] (30 mg every 12 weeks) was “very close to maximal MRI efficacy”. The “added efficacy compared with 60 mg every 12 weeks” value in data set [10] (60 mg every 4 weeks) is recorded as “didn't add any efficacy”. For the same substance, in data set [10] (weeks 0-12), the “reduction of cumulative new/newly enlarged T2 lesions vs placebo” value is recorded as 60-72% and the “reduction of mean cumulative number of new gadolinium-enhancing lesions vs placebo” value was found to be 65%. In data set [10] (weeks 0-12, 17/164 patients), the “patients who experienced a relapse” value is 10%. The “reduction of mean cumulative number of new gadolinium-enhancing lesions vs placebo” value in data set [10] (weeks 4-12, post hoc analysis, cumulative ofatumumab doses 2::30 mg) is no less than 90%.

In the case of rituximab, in data set [1], the MRI-measured inflammatory activity result is listed as “marked reductions”.
